Entries after “also recorded” stand apart in the source; their conditions may differ.
Experiments:
strawberries = experiment: In vivo test on strawberries with controlled release diffuser; settings: diffuser with 50 μL, 20° C., darkness, approx. 7 days, versus control; listed as composition of the present invention
Method: Mature strawberries were brought directly from local market and sent to laboratory within 2 hours. The strawberries were divided into two equal groups and each group of strawberries was placed in a box.
One group of strawberries were not exposed to any product (control) and another group of strawberries were exposed to a controlled release diffuser that contains the composition of the present invention. The controlled release diffuser was prepared using cellulose sheets (0.2 cm thick) in pieces (2×1 cm) and impregnated with 50 μL of pure β-cyclocitral (β-CC). These sheets were inserted into polyethylene bags (3×3 cm) that were subsequently heat-sealed.
The diffuser was place in the middle of one box from 10 cm to the surface of strawberries. The two boxes were covered with a plastic bag to keep inside a homogeneous atmosphere. Boxes were kept in an acclimated chamber (20° C., darkness) until the symptoms of fungi degradation (approx. 7 days).

Monilinia sp = experiment: Vapor-agar contact method, colony diameter; format: cell-based
Method: (§1) The fungi grown on strawberries was isolated and cultured on potato dextrose agar (PDA, Condalab, Madrid Spain) The fungus was identified as Monilinia sp.
Antifungal activity was determined by the vapor-agar contact method previously described by Sekiyama et al.. Fungi were cultured on potato dextrose agar (PDA) medium at 27° C. for a week. Fungal spores were then inoculated in the center of PDA plates which were aseptically placed in a chamber without lids.
A controlled release diffuser as described in examples 1 and 2 was used. In this example 3 doses of β-cyclocitral (β-CC) were used: 20, 50 and 100 μL.
The diffusers were introduced into the chambers, 6 cm far from the PDA plate, followed by proper sealing. Incubation in the chambers was performed at 27° C. for 3-5 days. The inhibitory activity was evaluated by measuring the diameter of colonies formed by the tested fungal strains. The minimum inhibitory dose (MID) was defined as the lowest concentration (mg/L in air) of volatile compounds which inhibited colony formation of test fungi by 50%.

Monilinia sp. = experiment: Compartment PDA plate, β-CC and eucalyptol on cellulose, mycelium growth inhibition; format: cell-based; settings: 25 μl of the single substance, 27° C., 3-5 days
Method: as §1
Fungal spores were then inoculated in the center of the compartment with PDA (40 mm diameter) and a small piece of cellulose with different volume of β-cyclocitral (β-CC) (composition of the present invention) and Eucalyptol was placed in one of the empty compartments. The plates were incubated at 27° C. for 3-5 days and the growth area of the mycelium and % of inhibition was measured.

cherries = experiment: In vivo test on cherries with controlled release diffuser; settings: diffuser with 50 μl, 20° C., darkness, 6 days; control approximately 23%
Method: Mature cherries were brought directly from Spanish farm and sent to laboratory within 24 hours. The cherries were divided into two equal groups and each group of cherries was placed in a plate.
One group of cherries were not exposed to any product (control) and another group of cherries were exposed to a controlled release diffuser that contains the composition of the present invention. The controlled release diffuser was prepared using cellulose sheets (0.2 cm thick) in pieces (2×1 cm) and impregnated with 50 μl of pure β-cyclocitral (β-CC). These sheets were inserted into polyethylene bags (3×3 cm) that were subsequently heat-sealed.
The diffuser was placed in the bottom of one plate. The two plates were covered with a plastic bag to keep inside a homogeneous atmosphere. Boxes were kept in an acclimated chamber (20° C., darkness) for 6 days.
Finally, the cherries (control and exposed to the composition) were separate into two groups: fruits able to consume (not sign of fungi) and fruits not able to consume (signs of fungi).

Phytophtera nicotiana = experiment: Vapor-agar contact method (modified, three-compartment petri dish); format: cell-based; settings: 50 μL; stated in text for all fungi of the example
Method: (§2) Inhibitory effects on the spore germination of other filamentous fungi, specifically Phytophtera nicotiana, Taphrina deformans, Colletotrichum and Rhizopus sp., were examined by the vapor-agar contact method described in example 1 with a slight modification as follows. Fungi were cultured on potato dextrose agar (PDA) medium at 27° C. for a week. It was used petri dish with three compartment, one compartment was filled out with PDA and another two was kept empty,
(§3) Fungal spores were then inoculated in the center of the compartment with PDA (40 mm diameter) and a small piece of cellulose with 50 μL of β-cyclocitral (β-CC) (composition of the present invention) was placed in one of the empty compartments. The plates were incubated at 27° C. for 3-5 days and the growth area of the mycelium and % of inhibition was measured.

Colletotrichum = experiment: as above; format: cell-based; settings: 50 μL, 27° C., 3-5 days
Method: as §2, §3

Taphrina deformans = experiment: as above; format: cell-based; settings: 50 μL, 27° C., 3-5 days
Method: as §2, §3

Rhizopus sp. = experiment: as above; format: cell-based; settings: 50 μL
Method: as §2, §3

roses = experiment: In vivo test on roses with controlled release diffuser; settings: diffuser with 50 μL, 20° C., darkness, approx. 7 days, versus control
Method: Roses were brought directly from local market and sent to laboratory within 12 hours. The roses were divided into two equal groups and each group of roses was placed in a jar filled with tap water.
One group of roses were not exposed to any product (control) and another group of roses were exposed to a controlled release diffuser that contains the composition of the present invention. The controlled release diffuser was prepared using cellulose sheets (0.2 cm thick) in pieces (2×1 cm) and impregnated with 50 μL of pure β-cyclocitral (β-CC). These sheets were inserted into polyethylene bags (3×3 cm) that were subsequently heat-sealed.
The diffuser was place in the middle of jar from 20 cm to the surface of the petals. The two jars were covered with a plastic bag to keep inside a homogeneous atmosphere. jars were kept in an acclimated chamber (20° C., darkness) until the symptoms of fungi degradation (approx. 7 days).

Structure (SMILES): CC1=C(C=O)C(C)(C)CCC1 [β-CC, beta-cyclocitral]
- rot / fungi contamination of strawberries (strawberries): less fungi contamination; also recorded: less rot
- inhibition (Monilinia sp; concentrations higher than 50 μL): more than 60%
- inhibition (Monilinia sp; concentrations of 100 μL): 80-100%
- doses that inhibit 50% of mycelium fungi (MID) (Monilinia sp; from linear model y=1.01X+4.2047, doses 20, 50 and 100 μL, 27° C., 3-5 days): 45.34 µL
- % Inhibition (Monilinia sp.): 78.22%
- cherries suitable for consumption (cherries): approximately 65%
- growth inhibition (Phytophtera nicotiana): 100%
- % Inhibition (Colletotrichum): 99.00%
- Growth area (Colletotrichum): 6.15 cm^2
- % Inhibition (Taphrina deformans): 100%
- Growth area (Taphrina deformans): 0 cm^2
- % Inhibition (Rhizopus sp.; 27° C., 3-5 days): 62.55%
- Growth area (Rhizopus sp.; 27° C., 3-5 days): 1.45 cm^2
- effect on spore germination (FIG. 3) (Rhizopus sp.; versus control): inhibitory effect on the spore germination
- spots on roses (roses): less spots

Source: patent US20250151740A1, “COMPOSITION FOR PREVENTING FUNGAL SPOILAGE IN POST-HARVEST FRUITS, VEGETABLES AND FLOWERS, METHOD AND USE THEREOF” (BIOBAB R&D, S.L., priority 2022, published 2025)
